Target: T1, SIRT1 (Homo sapiens, UniProt Q96EB6)
T1 sequence (Q96EB6 1-747): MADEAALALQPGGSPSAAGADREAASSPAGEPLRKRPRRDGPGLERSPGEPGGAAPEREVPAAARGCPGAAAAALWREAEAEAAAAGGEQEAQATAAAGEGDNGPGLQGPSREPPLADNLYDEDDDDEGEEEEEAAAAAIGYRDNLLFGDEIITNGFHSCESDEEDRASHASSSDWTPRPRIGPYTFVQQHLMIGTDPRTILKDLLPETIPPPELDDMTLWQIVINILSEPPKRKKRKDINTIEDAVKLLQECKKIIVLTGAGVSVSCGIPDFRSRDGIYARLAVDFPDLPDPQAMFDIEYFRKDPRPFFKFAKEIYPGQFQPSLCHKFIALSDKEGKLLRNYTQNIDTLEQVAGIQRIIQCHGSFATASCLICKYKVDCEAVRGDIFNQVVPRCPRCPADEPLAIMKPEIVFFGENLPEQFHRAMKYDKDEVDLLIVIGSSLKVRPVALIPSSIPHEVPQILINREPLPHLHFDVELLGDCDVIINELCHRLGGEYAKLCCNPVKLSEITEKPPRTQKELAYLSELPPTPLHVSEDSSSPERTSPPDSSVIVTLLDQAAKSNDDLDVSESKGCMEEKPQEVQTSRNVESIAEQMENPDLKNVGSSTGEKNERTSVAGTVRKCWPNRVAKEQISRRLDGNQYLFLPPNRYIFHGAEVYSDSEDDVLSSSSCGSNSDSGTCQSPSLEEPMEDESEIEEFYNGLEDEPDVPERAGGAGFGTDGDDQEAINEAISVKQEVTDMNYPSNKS
Experiment: Trp mass spectrometry assay of SIRT1 activation
Assay type: biochemical
Conditions: Trp peptide Ac-R-H-K-K(Ac)-W-NH2 0.5 μM, 120 μM βNAD+, 10 nM SIRT1, 25 min, 25° C.

Compound | TRP Activity (EC1.5, concentration of compound required to increase SIRT1 activity by 50% over control) | TRP MAX RESP (percent maximum fold activation relative to control)
O=C(Nc1ccc(OC[C@@H](O)CO)cn1)N1c2nc(-c3cccc(C(F)(F)F)c3)ncc2N2CC[C@H]1C2 [Example 42, (8S)—N-(5-((S)-2,3-dihydroxypropoxy)pyridin-2-yl)-2-(3-(trifluoromethyl)phenyl)-7,8-dihydro-5,8-methanopyrimido[4,5-b][1,4]diazepine-9(6H)-carboxamide] | B (EC1.5 1-25 μM) | A (Fold activation ≥150%)
Cc1ccc2c(NC(=O)N3c4nc(C(=O)NCC(F)(F)F)ncc4N4CCC[C@H]3C4)n[nH]c2n1 [Example 65, (9S)—N10-(6-methyl-1H-pyrazolo[3,4-b]pyridin-3-yl)-N2-(2,2,2-trifluoroethyl)-8,9-dihydro-6H-5,9-methanopyrimido[4,5-b][1,4]diazocine-2,10(7H)-dicarboxamide] | B (EC1.5 1-25 μM) | A (Fold activation ≥150%)
O=C(Nc1ccnc(OC[C@H](O)CO)n1)N1c2nc(-c3cccc(C(F)(F)F)c3)ncc2N2CC[C@H]1C2 [Example 28, (8S)—N-(2-((R)-2,3-dihydroxypropoxy)pyrimidin-4-yl)-2-(3-(trifluoromethyl)phenyl)-7,8-dihydro-5,8-methanopyrimido[4,5-b][1,4]diazepine-9(6H)-carboxamide] | B (EC1.5 1-25 μM) | A (Fold activation ≥150%)
Cn1cccc(NC(=O)N2c3nc(C(=O)NCC(F)(F)F)ncc3N3CC[C@H]2C3)c1=O [Example 2, (8S)—N9-(1-methyl-2-oxo-1,2-dihydropyridin-3-yl)-N2-(2,2,2-trifluoroethyl)-7,8-dihydro-5,8-methanopyrimido[4,5-b][1,4]diazepine-2,9(6H)-dicarboxamide] | B (EC1.5 1-25 μM) | A (Fold activation ≥150%)
Cc1ccc(-c2nc(C)c3c(n2)N(C(=O)Nc2ccccn2)[C@H]2CCN3C2)cn1 [Example 12, (8S)-4-methyl-2-(6-methylpyridin-3-yl)-N-(pyridin-2-yl)-7,8-dihydro-5,8-methanopyrimido[4,5-b][1,4]diazepine-9(6H)-carboxamide] | B (EC1.5 1-25 μM) | A (Fold activation ≥150%)
O=C(Nc1cnc(OC[C@H](O)CO)cn1)N1c2nc(-c3cccc(C(F)(F)F)c3)ncc2N2CC[C@H]1C2 [Example 18, (8S)—N-(5-((R)-2,3-dihydroxypropoxy)pyrazin-2-yl)-2-(3-(trifluoromethyl)phenyl)-7,8-dihydro-5,8-methanopyrimido[4,5-b][1,4]diazepine-9(6H)-carboxamide] | B (EC1.5 1-25 μM) | A (Fold activation ≥150%)
O=C(Nc1cc(OC[C@@H](O)CO)ncn1)N1c2nc(-c3cccc(C(F)(F)F)c3)ncc2N2CCC[C@H]1C2 [Example 96, (9S)—N-(6-((S)-2,3-dihydroxypropoxy)pyrimidin-4-yl)-2-(3-(trifluoromethyl)phenyl)-8,9-dihydro-6H-5,9-methanopyrimido[4,5-b][1,4]diazocine-10(7H)-carboxamide] | A (EC1.5<1 μM) | A (Fold activation ≥150%)
O=C(Nc1cnc(OC[C@@H](O)CO)cn1)N1c2nc(-c3cccc(C(F)(F)F)c3)ncc2N2CCC[C@H]1C2 [Example 83, (9S)—N-(5-((S)-2,3-dihydroxypropoxy)pyrazin-2-yl)-2-(3-(trifluoromethyl)phenyl)-8,9-dihydro-6H-5,9-methanopyrimido[4,5-b][1,4]diazocine-10(7H)-carboxamide] | A (EC1.5<1 μM) | A (Fold activation ≥150%)
CN(C)c1cc(-c2ncc3c(n2)N(C(=O)Nc2ccccn2)[C@H]2CCN3C2)ccn1 [Example 11, (8S)-2-(2-(dimethylamino)pyridin-4-yl)-N-(pyridin-2-yl)-7,8-dihydro-5,8-methano pyrimido[4,5-b][1,4]diazepine-9(6H)-carboxamide] | B (EC1.5 1-25 μM) | –
O=C(Nc1nccc(OC[C@H](O)CO)n1)N1c2nc(-c3cccc(C(F)(F)F)c3)ncc2N2CC[C@H]1C2 [Example 26, (8S)—N-(4-((R)-2,3-dihydroxypropoxy)pyrimidin-2-yl)-2-(3-(trifluoromethyl)phenyl)-7,8-dihydro-5,8-methanopyrimido[4,5-b][1,4]diazepine-9(6H)-carboxamide] | B (EC1.5 1-25 μM) | A (Fold activation ≥150%)
O=C(Nc1cccc(OC[C@H](O)CO)n1)N1c2nc(-c3cccc(C(F)(F)F)c3)ncc2N2CCC[C@H]1C2 [Example 89, (9S)—N-(6-((R)-2,3-dihydroxypropoxy)pyridin-2-yl)-2-(3-(trifluoromethyl)phenyl)-8,9-dihydro-6H-5,9-methanopyrimido[4,5-b][1,4]diazocine-10(7H)-carboxamide] | A (EC1.5<1 μM) | A (Fold activation ≥150%)
C[C@@H](NC(=O)c1ncc2c(n1)N(C(=O)Nc1cc(OC[C@@H](O)CO)ncn1)[C@H]1CCCN2C1)C(F)(F)F [Example 75, (9S)—N10-(6-((S)-2,3-dihydroxypropoxy)pyrimidin-4-yl)-N2-((R)-1,1,1-trifluoropropan-2-yl)-8,9-dihydro-6H-5,9-methanopyrimido[4,5-b][1,4]diazocine-2,10(7H)-dicarboxamide] | B (EC1.5 1-25 μM) | A (Fold activation ≥150%)
O=C(Nc1ccc(OC[C@@H](O)CO)nc1)N1c2nc(-c3cccc(C(F)(F)F)c3)ncc2N2CCC[C@H]1C2 [Example 101, (9S)—N-(6-((S)-2,3-dihydroxypropoxy)pyridin-3-yl)-2-(3-(trifluoromethyl)phenyl)-8,9-dihydro-6H-5,9-methanopyrimido[4,5-b][1,4]diazocine-10(7H)-carboxamide] | A (EC1.5<1 μM) | A (Fold activation ≥150%)
O=C(Nc1ccc(OC[C@@H](O)CO)nc1)N1c2nc(-c3cccc(C(F)(F)F)c3)ncc2N2CC[C@H]1C2 [Example 38, (8S)—N-(6-((S)-2,3-dihydroxypropoxy)pyridin-3-yl)-2-(3-(trifluoromethyl)phenyl)-7,8-dihydro-5,8-methanopyrimido[4,5-b][1,4]diazepine-9(6H)-carboxamide] | A (EC1.5<1 μM) | A (Fold activation ≥150%)
Cc1nc(-c2cccc(C(F)(F)F)c2)nc2c1N1CCC[C@@H](C1)N2C(=O)Nc1nccc(OC[C@@H](O)CO)n1 [Example 112, (9S)—N-(4-((S)-2,3-dihydroxypropoxy)pyrimidin-2-yl)-4-methyl-2-(3-(trifluoromethyl)phenyl)-8,9-dihydro-6H-5,9-methanopyrimido[4,5-b][1,4]diazocine-10(7H)-carboxamide] | A (EC1.5<1 μM) | A (Fold activation ≥150%)
O=C(Nc1cnc(OC[C@H](O)CO)nc1)N1c2nc(-c3cccc(C(F)(F)F)c3)ncc2N2CC[C@H]1C2 [Example 49, (8S)—N-(2-((R)-2,3-dihydroxypropoxy)pyrimidin-5-yl)-2-(3-(trifluoromethyl)phenyl)-7,8-dihydro-5,8-methanopyrimido[4,5-b][1,4]diazepine-9(6H)-carboxamide] | B (EC1.5 1-25 μM) | A (Fold activation ≥150%)
Cc1nc(-c2cccc(C(F)(F)F)c2)nc2c1N1CCC[C@@H](C1)N2C(=O)Nc1cncc(OC[C@@H](O)CO)c1 [Example 109, (9S)—N-(5-((S)-2,3-dihydroxypropoxy)pyridin-3-yl)-4-methyl-2-(3-(trifluoromethyl)phenyl)-8,9-dihydro-6H-5,9-methanopyrimido[4,5-b][1,4]diazocine-10(7H)-carboxamide] | A (EC1.5<1 μM) | A (Fold activation ≥150%)
